From patent publication US6812214B2, “Use of harpagid-related compounds for prevention and treatment of osteoporosis, arthritis and ruptured disc and pharmaceutical composition containing the same” (priority 2000, dated 2004) come the findings set out here.

Structures are written as SMILES. Entries after “also recorded” stand apart in the source; their conditions may differ.

In one test the test system is synovial cells. Nature of the test: Induction of apoptosis of synovial cell lines. The class given is cell-based, human. Particulars: 10 μg/ml, 24 hours. The method, then: The synovial cells separated from outpatients suffering from rheumatoid arthritis were distributed on 5% DMEM medium supplemented with penicillin/streptomycin in a 6-well culture dish at the concentration of 10^4 cells and then incubated for 24 hours at 37° C. to observe the surviving cells. In order to determine the presence or absence of cells and the proliferating state of cells, apoptosis-induced cells were examined by taking their photographs under a phase-contrast microscope of 200 magnifications.
(§1) In order to determine whether the compound identified as the effective component of the pharmaceutical composition separated according to the present invention can induce the apoptosis of Raw 264.7 cell lines as macrophage involved in inflammatory reaction and synovial cells, the cells were distributed on 5% DMEM medium supplemented with penicillin/streptomycin in a 6-well culture dish at the concentration of 10^4 cells and then incubated at 37° C. for 24 hours while adding the extractions as above at the concentration of 10 μg/ml to observe the reaction. Apoptosis was examined by taking a photograph of apoptosis-induced cells under a polarizing microscope of 200 magnifications.

Test [1] relates to Raw 264.7 cell lines. Nature of the test: Induction of apoptosis of macrophages. The class given is cell-based. Particulars: Raw 264.7 cells; 10 μg/ml, 24 hours. The method, then: as §1
Test [2] concerns COX-II. Nature of the test: Inhibition of COX-II expression at the level of transcription through RT-PCR. The class given is cell-based. The method, then: In order to identify the ingredient having an inhibitory activity against COX-II and inducible nitric oxide synthetase (iNOS) as the causal factors of rheumatoid arthritis in the extract used as the effective component of the pharmaceutical composition according to the present invention as in Experiment 6 above, the cells were distributed in T75 flask at the concentration of 10^5 cells, incubated for 7 days and then stimulated for 2 hours by introducing LPS in the flask at the concentration of 50 ng/ml. Then, the extract of the present invention was added so as to make the final concentration of 50 μg/ml. The cells were harvested into a 1.5 ml Eppendorf tube and centrifuged with 15,000 rpm at 4° C. for 15 minutes to remove the supernatant. 200 μl of RNAzol solution was added to the residue followed by addition of 50 μl of chloroform. The cells were lysed by careful pippeting, and then centrifuged with 15,000 rpm at 4° C. for 15 minutes to recover a total RNA, which was then precipitated at 4° C. for 15 minutes by adding the same volume of isopropanol, washed once with 75% ethanol and then dried. The cell lysate was dissolved by adding 20 μl of […] and then warming the mixture at 60° C. for 30 minutes. Then, reverse transcriptase reaction was conducted at 50° C. for 20 minutes by adding 5 μl of 10 mM dNTP, 6 μl of 25 mM MgCl2, 5 μl of 10× RNA PCR buffer, 1 μl of RNase inhibitor, 1 μl of AMV-optimized Taq, 1 μl of AMV reverse transcriptase XL, 1 μl of 50 pM specific primer (sense/antisense), and 26 μl of RNase free dH2O to 5 μl of total RNA, and then stopped at 94° C. for 2 minutes to conduct DNA synthetic reaction (polymerase chain reaction: PCR). The PCR was conducted under conditions comprising 94° C. 1 minute, 55° C. 45 seconds, 70° C. 60 seconds for 35 cycles, and then, finally the elongation reaction was conducted at 70° C. for 5 minutes to complete the reaction. The resulting PCR product was eluted on 1% agarose gel and observed whether the bands are present near 395 bp and 278 bp on the basis of a size marker.

The subject of test [3] is edema-induced albino rats. Nature of the test: Inhibitory effect on edema of arthritis (Zymosan-A / Freund's adjuvant induced paw edema). The class given is in vivo. Particulars: for inhibitory effect on edema: in words, after 70 days. How it is done: In order to observe the inhibitory effect on edema of the pharmaceutical composition of the present invention, 6 albino rats weighing 200 g were used per test group to induce edema by injecting the mixture of 0.5 ml of Zymosan-A (20 mg/ml/kg) and 0.5 ml of Freund's adjuvant into ST36 position of left paw and then observed for the progress of edema for 70 days by taking a photograph before and after induction of edema. The water extract and organic solvent fractions of the pharmaceutical composition of the present invention were respectively constituted in the concentration of 0.6 mg/ml and then orally administered for 14 days to albino rats in an amount of 1 ml per kg of body weight once a day to determine the inhibitory effect on edema. As the test sample, the organic solvent fractions of the pharmaceutical composition including ABE, ABB, ABW, CBE, CBB, CBW, LNE, LNB, LNW, CRB, CRW, SSH and SSW were respectively used. As the result of this test, it was observed that edema was started to induce on day 4 and reached the peak point after about 45 days. The period for this test was established as 70 days after edema induction to observe the inhibitory effect on edema of the extracts of the present invention. As the result, the edema size was measured using a precision gauge.

A short description of test [4]: Effect on arthritis of the compounds isolated from Harpagophytum procumbens DC (summary statement). Particulars: summary in background text.
The test system of test [5] is Raw 264.7 cell lines. The test can be described thus: Effect on cell cycle of macrophage cells (flow cytometry). The class given is cell-based. The conditions noted are these: 20 μg/ml, LPS 50 ng/ml, propidium iodide flow cytometry. The method, then:
(§2) Two kinds of cells were incubated as in Experiment 6 and then washed with PBS (phosphate-buffered saline). LPS was distributed on the respective dishes at the concentration of 50 ng/ml to stimulate the cells. Then, the extract according to the present invention was added over 2 hours so as to make the final concentration of 20 μg/ml. The supernatant was removed, washed with PBS and then treated with trypsin. The cells were harvested, introduced into Eppendorf tube and then centrifuged at 1,000 rpm for 5 minutes to remove the supernatant. The residue was fixed with addition of 1 ml of 100% ethanol. At this time, the mixture of 5 μg/ml propidium iodide and RNAse was separately prepared. The fixed cells were centrifuged to remove the supernatant and then washed once with PBS. Simultaneously, the staining agent as previously prepared above was added to the fixed cells and then warmed in an incubator at 37° C. for 30 minutes. The cells stained with propidium iodide was sealed with foil, stored at 4° C. and then subjected to a flow cytometry analysis using FACscan (Becton Dickinson, Calif.) as the analyzing apparatus.
For orientation: A flow cytometer gives signals particle by particle.

Test [6] relates to COX-II. Nature of the test: Expression of COX-II protein by immunocytochemical analysis in synovial cells. The class given is cell-based. Particulars: 10 μg/ml. How it is done: In order to determine whether the compound identified as the effective component of the pharmaceutical composition separated by the present invention induces an inhibitory effect on COX-II of synovial cells in joint portion, 10^4 synovial cells were distributed on 5% DMEM medium supplemented with penicillin/streptomycin in 6-well culture dish containing a slimb over glass, incubated for 24 hours at 37° C., during which the extract of the present invention was added to the concentration of 10 μg/ml to observe the reaction. The waste was removed and then, the cells were washed once with PBS, fixed with methanol and then washed with PBS. The cells were labeled with the primary antibody COX-II and then allowed to stand at 4° C. for about one hour. Then, the cells were labeled with a fluorescence (fluorescein isothiocyanate: FITC) as the secondary antibody, allowed to stand for about one hour while masking from light with foil and then observed under a fluorescence microscope.

Another test concerns iNOS. The test can be described thus: Inhibition of iNOS expression at the level of transcription through RT-PCR. The class given is cell-based. The conditions noted are these: FIG. 11a; 50 μg/ml; LPS 50 ng/ml. The method, then: In order to identify the ingredient having an inhibitory activity against COX-II and inducible nitric oxide synthetase (iNOS) as the causal factors of rheumatoid arthritis in the extract used as the effective component of the pharmaceutical composition according to the present invention as in Experiment 6 above, the cells were distributed in T75 flask at the concentration of 10^5 cells, incubated for 7 days and then stimulated for 2 hours by introducing LPS in the flask at the concentration of 50 ng/ml. Then, the extract of the present invention was added so as to make the final concentration of 50 μg/ml. The cells were harvested into a 1.5 ml Eppendorf tube and centrifuged with 15,000 rpm at 4° C. for 15 minutes to remove the supernatant. 200 μl of RNAzol solution was added to the residue followed by addition of 50 μl of chloroform. The cells were lysed by careful pippeting, and then centrifuged with 15,000 rpm at 4° C. for 15 minutes to recover a total RNA, which was then precipitated at 4° C. for 15 minutes by adding the same volume of isopropanol, washed once with 75% ethanol and then dried. The cell lysate was dissolved by adding 20 μl of […] and then warming the mixture at 60° C. for 30 minutes. […]

Test [7] relates to NO formation in RAW 264.7 cell lines. Nature of the test: NO formation in macrophage cells stimulated by lipid polysaccharide. The class given is cell-based. Particulars: 10 μg/ml; LPS 50 ng/well; Greiss reagent. How it is done:
In order to identify whether the extracts obtained according to the present invention can inhibit the synthesis of nitric oxide (NO) as the potent inducer of inflammation in blood due to edema as above, macrophage RAW 264.7 cell lines were distributed in a 96-well microplate at the concentration of 10^3 cells per well and then incubated for 12 hours. Then, lipid polysaccharide was added to the plate at the concentration of 50 ng/well to stimulate the cells for 2 hours. The respective organic solvent fractions were added to the plate to the final concentration of 10 μg/ml followed by addition of 50 μl of Greiss reagent solution, and then allowed to react together at room temperature. Then, the absorbance of the plate was measured at 540 nm of ELISA (enzyme-linked immunosorbent assay) reader. For comparative analysis, 0.1, 1, 10, 20, 50, 100, 150 μM sodium nitrite as the standard solution were developed with sodium nitroprusside dihydrate (SNP).

The test system of test [8] is edema-induced albino rats. The test can be described thus: Joint rupture in edema-inhibited albino rats by X-ray analysis. The class given is in vivo. The conditions noted are these: oral 14 days, 75 μg/ml; about 70 days. The method, then:
The respective water extract and organic solvent fractions were orally administered for 14 days at the concentration of 75 μg/ml to investigate their inhibitory effect on edema as in Experiment 1. The test albino rats were anesthetized to take X-ray photograph.

For test [9], the system named is nogo-A expressed U-373 MG cell line. Nature of the test: Neurite regeneration in nogo-A expressing glioblastoma cells (vertebral neuroparalysis). The class given is cell-based. Particulars: nogo-A transfected U-373 cells; phase-contrast microscope. An excerpt:
Simultaneously, it was also observed whether neurites can be regenerated by treatment with neuronal growth factor (NGF) or whether the fractions of the present invention can provide the same effect, by taking a photograph with a phase-contrast microscope of 200 magnifications.

The next test concerns synovial cell lines. Nature of the test: Effect on cell cycle of synovial cell lines (flow cytometry). The class given is cell-based, human. Particulars: 20 μg/ml, LPS 50 ng/ml, propidium iodide flow cytometry. The method, then:
as §2

Test [10] relates to CAM formation induced by synovial cells. The test can be described thus: Angiogenesis of synovial cells in chorioallantoic membrane (CAM) of fertilized egg. The conditions noted are these: 10 μg/ml on CAM; compared to control group. How it is done: In order to determine the effect of the organic solvent fractions obtained in Experiment 1 on the angionenesis of synovial cells using the cells separated in Experiment 2, synovial cells were injected into fertilized egg and then incubated in an incubator at 37° C. for 3 days to observe the formation of chorioallantoic membrane (CAM). In the present state, the fractions separated according to the above method were respectively distributed on CAM at the concentration of 10 μg/ml to observe the degree of CAM decrease.

Turning to `C[C@]1(OC(=O)/C=C/c2ccccc2)C[C@@H](O)[C@]2(O)C=CO[C@@H](O[C@@H]3O[C@H](CO)[C@@H](O)[C@H](O)[C@H]3O)[C@@H]21` [LNE-1, harpagoside], the induction of apoptosis result with synovial cells and in the test with Raw 264.7 cell lines [1] was “more strongly inducing the apoptosis” each time. For the same compound, the “effect on COX-II expression (RT-PCR)” value with COX-II [2] (FIG. 11c, respective fractions) is reported as “strongly inhibit the protein expression”. The “edema size after treatment” value in test [3] (Table 3 (best fractions), measured after 70 days, unit not given, in mm) was determined as 5.1 ± 2. The “edema size before treatment” value in [3] (Table 3 (best fractions), unit not given, in mm) was found to be 15.1 ± 2. In addition, in test [3], the “inhibitory effect on edema” value is given as “potent inhibitory effect on edema”. Also, in [4], the effect on arthritis entry is given as “moderate pharmacological effect”.
`OC[C@H]1O[C@H](OC[C@H]2O[C@H](OC[C@H]3O[C@H](O[C@]4(CO)O[C@H](CO)[C@@H](O)[C@@H]4O)[C@H](O)[C@@H](O)[C@@H]3O)[C@H](O)[C@@H](O)[C@H]2O)[C@H](O)[C@@H](O)[C@H]1O` [LNE-2, starchyose]: the “effect on cell cycle” value in the test with Raw 264.7 cell lines [5] was “induced G0/G1 arrest”.
As for `C[C@]1(O)C[C@@H](O)[C@]2(O)C=CO[C@@H](O[C@H]3O[C@H](CO)[C@@H](O)[C@H](O)[C@H]3O)[C@@H]21` [LNE-3, harpagide], the “COX-II protein expression (immunofluorescence, FITC)” value in the test on COX-II [6] is “tendency to greatly decrease the protein expression”. In addition, the “effect on iNOS expression (RT-PCR band near 278 bp)” value in the test on iNOS is on record as “have an effect on the protein expression”. For the same compound, in test [7], the “inhibition of NO formation” value is given as “stronger inhibitory effect on NO formation”. Further, the induction of apoptosis result in the test on synovial cells and with Raw 264.7 cell lines [1] was “more strongly inducing the apoptosis” throughout. For the same compound, in test [8], the “osteogenesis (X-ray)” value is recorded as “effect of stimulating the osteogenesis”. For the same compound, the “rupture of cartilage in arthritic portion (X-ray)” value in test [8] is recorded as “inhibits the rupture of cartilage in arthritic portion”. Further, the “effect on COX-II expression (RT-PCR)” value is given as “inhibitory effect at the level of transcription” with COX-II [2] (FIG. 11a, 50 μg/ml, LPS 50 ng/ml) and “strongly inhibit the protein expression” in the test with COX-II [2] (FIG. 11c, respective fractions). For the same compound, the “neurite pattern (regeneration of neurites)” value in test [9] was “neurites were lengthened”. Besides, the “inhibitory effect on edema” value in test [3] is “potent inhibitory effect on edema; also recorded: most significant”. The “effect on cell cycle” value in the test with synovial cell lines is “induced the apoptosis”. The effect on arthritis entry in test [4] was “most effective”. Also, the “induction of CAM formation (angiogenesis by synovial cells)” value in test [10] is given as “more strongly inhibited the induction of CAM formation”.
